ChEMBL document CHEMBL1135201, “Combinatorial library of indinavir analogues: replacement for the aminoindanol at P2'” (Bioorg Med Chem Lett, 2002)

How the values were obtained:
MT4 = test: Ability to inhibit the spread of viral infection in MT-4 human T-lymphoid cells infected with HIV IIIb; format: functional
[1] = target: Human immunodeficiency virus type 1 protease (Human immunodeficiency virus 1, UniProt Q72874); test: Ability to prevent cleavage of acompound by the HIV protease wild-type enzyme

Compound Cc1cc(O)cc(C)c1CNC(=O)[C@H](Cc1ccccc1)C[C@@H](O)CN1CCN(S(=O)(=O)c2ccc3c(c2)CCN3c2ncccn2)C[C@@H]1C(=O)NC(C)(C)C has a ClC95 (MT4) of 31.3 nM and an IC50 [1] of 200 pM.
For CC(C)(C)NC(=O)[C@H]1CN(S(=O)(=O)c2cccs2)CCN1C[C@H](O)C[C@@H](Cc1ccccc1)C(=O)NC1c2ccccc2C[C@H]1O (stereo partly drawn), the ClC95 (MT4) was 31.3 nM and the IC50 [1] was 100 pM.
CSc1nccc(-c2ccc(S(=O)(=O)N3CCN(C[C@H](O)C[C@@H](Cc4ccccc4)C(=O)NCc4c(C)cc(O)cc4C)[C@@H](C(=O)NC(C)(C)C)C3)s2)n1 showed a ClC95 (MT4) of 62.5 nM and an IC50 [1] of under 200 pM.
Cc1cc(O)cc(C)c1CNC(=O)[C@H](Cc1ccccc1)C[C@@H](O)CN1CCN(S(=O)(=O)c2cccs2)C[C@@H]1C(=O)NC(C)(C)C was tested, and the ClC95 (MT4) was 62.5 nM and the IC50 [1] was 470 pM.
